Experimental data as given in paper PMC7265341, “Quantifying CDK inhibitor selectivity in live cells” (Nature Communications, 2020).
Several values for one entry are separate records, joined by “and”; a condition that tells them apart may be missing. Equal entries are not always repeated.

Key:
[1] = molecular target: T1, CDK9 (HiBiT, endogenous locus) (Homo sapiens, UniProt P50750); experiment: Target engagement in HEK293 endogenously edited (CRISPR/Cas9) with HiBiT on CDK9; assay type: binding; set-up: unit not given here
T1 construct: endogenous in cells; host or cells: HEK293 edited by CRISPR/Cas9, transduced with LgBiT BacMam
T1 sequence (P50750 whole entry): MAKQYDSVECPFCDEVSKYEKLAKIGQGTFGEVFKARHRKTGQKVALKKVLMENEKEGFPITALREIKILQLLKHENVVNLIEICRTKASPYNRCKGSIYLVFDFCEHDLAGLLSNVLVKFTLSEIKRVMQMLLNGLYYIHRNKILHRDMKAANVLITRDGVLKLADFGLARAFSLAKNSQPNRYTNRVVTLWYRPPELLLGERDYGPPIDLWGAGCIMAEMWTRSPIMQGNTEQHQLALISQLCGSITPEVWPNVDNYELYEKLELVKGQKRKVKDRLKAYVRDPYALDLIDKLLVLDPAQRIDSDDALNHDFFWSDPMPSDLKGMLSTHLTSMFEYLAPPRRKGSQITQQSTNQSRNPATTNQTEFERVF

[2] = molecular target: CDK7 (Homo sapiens, UniProt P50613); experiment: Real-time analysis of engagement (kobs, IC50 vs time) in live cells, CDK7; assay type: binding
Sequence of CDK7 (P50613 whole entry): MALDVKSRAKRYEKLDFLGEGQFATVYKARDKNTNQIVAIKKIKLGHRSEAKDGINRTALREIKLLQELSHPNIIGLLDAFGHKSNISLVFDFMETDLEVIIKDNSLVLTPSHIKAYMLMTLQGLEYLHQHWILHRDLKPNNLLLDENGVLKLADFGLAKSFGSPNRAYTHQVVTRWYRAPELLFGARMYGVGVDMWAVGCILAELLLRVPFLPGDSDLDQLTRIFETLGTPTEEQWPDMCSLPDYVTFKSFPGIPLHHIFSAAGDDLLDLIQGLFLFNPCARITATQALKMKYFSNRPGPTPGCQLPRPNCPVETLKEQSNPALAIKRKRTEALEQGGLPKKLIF
Protocol: Cells were pre-equilibrated with energy transfer probe for 40 min prior to addition of […]
intervals at 25 °C (temperature reduced to avoid evaporation of cell culture medium). To quantify […]
vs time. Apparent association rate was also plotted as k obs vs [RGB286638], where kobs was determined using the one phase association equation (Supplementary Equation 2) in graphpad prism.
Y=Y0 + (Plateau-Y0)*(1-e-K*X) (2) where Y = mBRET ratio, X = time, and K = the observed rate constant ( kobs). […]
CDK7 (left) and CDK6 (right) to generate kobs. Kinetic traces were collected in a single biological experiment (n = 1), where individual data points represent the mean ± S.D of technical triplicates (n = 3).
(B) kobs values (n = 1) were generated from panel A by fitting Supplementary Equation 2, and were then […]
collected at each timepoint represent technical singlicates (n = 1 ). Source data are provided as a Source

[3] = LOG10([THZ1]) (LOG10(µM)) 0.346787
[4] = LOG10([THZ1]) (LOG10(µM)) 0.823909
[5] = LOG10([THZ1]) (LOG10(µM)) 1.30103, Replicates 1 and 2
[6] = LOG10([THZ1]) (LOG10(µM)) -0.60746
[7] = LOG10([THZ1]) (LOG10(µM)) -1.08458
[8] = LOG10([THZ1]) (LOG10(µM)) -1.5617
[9] = LOG10([THZ1]) (LOG10(µM)) -2.03882
[10] = LOG10([THZ1]) (LOG10(µM)) -2.51594
[11] = LOG10([THZ1]) (LOG10(µM)) -2.99306
[12] = LOG10([THZ1]) (LOG10(µM)) -3.47018
[13] = LOG10([THZ1]) (LOG10(µM)) -3.9473

## COc1cc(F)ccc1-c1cc(Nc2cc(CS(C)(=N)=O)ccn2)ncc1F (stereo not shown) [BAY-1251152]
[1]; LOG10([BAY-1251152]) (LOG10(µM)) 0.045757
  CDK9 Occupancy Data, CRISPR/HiBiT: 108.918 and 104.91
[1]; LOG10([BAY-1251152]) (LOG10(µM)) 0.522879
  CDK9 Occupancy Data, CRISPR/HiBiT: 117.335 and 92.6854
[1]; LOG10([BAY-1251152]) (LOG10(µM)) 1
  CDK9 Occupancy Data, CRISPR/HiBiT: 97.495 and 102.505
[1]; LOG10([BAY-1251152]) (LOG10(µM)) -0.43136
  CDK9 Occupancy Data, CRISPR/HiBiT: 105.11 and 102.705
[1]; LOG10([BAY-1251152]) (LOG10(µM)) -0.90849
  CDK9 Occupancy Data, CRISPR/HiBiT: 108.717 and 93.6874
[1]; LOG10([BAY-1251152]) (LOG10(µM)) -1.38561
  CDK9 Occupancy Data, CRISPR/HiBiT: 87.2745 and 99.499
[1]; LOG10([BAY-1251152]) (LOG10(µM)) -1.86273
  CDK9 Occupancy Data, CRISPR/HiBiT: 72.6453 and 62.8257
[1]; LOG10([BAY-1251152]) (LOG10(µM)) -2.33985
  CDK9 Occupancy Data, CRISPR/HiBiT: 30.9619 and 31.9639

## CN(C)C/C=C/C(=O)Nc1ccc(C(=O)Nc2cccc(Nc3ncc(Cl)c(-c4c[nH]c5ccccc45)n3)c2)cc1 [THZ1]
[2]; [3]
  mBRET values, 2h: 8.56 mBRET and 5.32 mBRET
  mBRET values, 6h: 7.65 mBRET and 4.87 mBRET
[2]; [4]
  mBRET values, 2h: 7.68 mBRET and 4.86 mBRET
  mBRET values, 6h: 7.21 mBRET and 4.56 mBRET
[2]; [5]
  mBRET values, 2h: 6.67 mBRET and 4.16 mBRET
  mBRET values, 6h: 6.77 mBRET and 4.18 mBRET
[2]; [6]
  mBRET values, 2h: 15 mBRET and 7.79 mBRET
  mBRET values, 6h: 8.54 mBRET and 5.25 mBRET
[2]; [7]
  mBRET values, 2h: 16.83 mBRET and 10.6 mBRET
  mBRET values, 6h: 9.55 mBRET and 5.83 mBRET
[2]; [8]
  mBRET values, 2h: 18.12 mBRET and 11.5 mBRET
  mBRET values, 6h: 13.84 mBRET and 8.78 mBRET
[2]; [9]
  mBRET values, 2h: 20.68 mBRET and 12.8 mBRET
  mBRET values, 6h: 18.55 mBRET and 12 mBRET
[2]; [10]
  mBRET values, 2h: 20.88 mBRET and 13.4 mBRET
  mBRET values, 6h: 19.6 mBRET and 13.1 mBRET
[2]; [11]
  mBRET values, 2h: 20.48 mBRET and 13.4 mBRET
  mBRET values, 6h: 19.14 mBRET and 12.9 mBRET
[2]; [12]
  mBRET values, 2h: 19.82 mBRET and 13.5 mBRET
  mBRET values, 6h: 18.6 mBRET and 13.6 mBRET
[2]; [13]
  mBRET values, 2h: 20.06 mBRET and 13.5 mBRET
  mBRET values, 6h: 19.78 mBRET and 13.4 mBRET
[2]; LOG10([THZ1]) (LOG10(µM)) -0.13033
  mBRET values, 6h: 8.08 mBRET and 4.82 mBRET
